Assay results published in patent US20230346820A1, “METHODS AND COMPOSITIONS FOR THE TREATMENT OF SARS-COV-2” (priority 2020, published 2023).
Where two headings read alike, the source gives them in different places.

Key:
[1] = system: SARS-CoV-2; assay: microbe, parasite or virus in culture; conditions: Severe acute respiratory syndrome coronavirus 2, Calu-3, 48 h, read-out: Calu-3 CoV-2 EC50 [μM]
[2] = system: SARS-CoV-2
[3] = system: SARS-CoV-2; remark: listed apart in the source
[4] = system: SARS-CoV-2; assay: microbe, parasite or virus in culture
[5] = in vitro; conditions: human
Procedure: To assess cell viability, 2 μL of 50% Cell-Titer Glo (Promega No G7573) diluted in water was added to the cells and luminescence measured on an EnVision Plate Reader (Perkin Elmer).
Data analysis. […] Primary in vitro screen and the host cell cytotoxicity counter screen data were uploaded to Genedata Screener, Version 16.0.3-Standard. […] For the uninfected host cell cytotoxicity counter screens, 40 μM puromycin (Sigma) was used as the positive (inhibitory) control in HeLa-ACE2, HepG2 and HEK293T cells, and 30 μM puromycin (Sigma) was used as the positive (inhibitory) control for Calu-3 cells. For dose response experiments compounds were tested in technical triplicates on different assay plates and dose curves were fitted with the four parameter Hill Equation. Technical replicate data were analyzed using median condensing. Geometric means and geometric standard deviations are reported for compound activities (EC50s and CC50s) obtained in multiple independent biological experiments. […] Geometric means were calculated by computing the logarithm (base 10) of all values, calculating the mean of these logarithms, and taking the antilog of that mean. Geometric standard deviations were computed by taking the standard deviation of the log-transformed individual values and taking the antilog of that standard deviation. The geometric standard deviation is a unitless ratio and reported as ×÷ instead of +/−.

[6] = in vitro; conditions: human; remark: listed apart in the source
[7] = system: HeLa-ACE2 cells; assay: cells; assay type: cell-based, human; conditions: Homo sapiens, HeLa-ACE2, read-out: HeLa-ACE-2 EC50 [μM] (Geomeans, n ≥ 2)
[8] = system: SARS-CoV-2; assay: Checkerboard synergy study with remdesivir (ZIP model, synergyfinder); assay type: cell-based; conditions: for Synergy score with remdesivir (δ): Table 3
[9] = Severe acute respiratory syndrome coronavirus 2, HeLa-ACE2, read-out: HeLa-ACE2 CoV-2 EC50 [μM]
[10] = Severe acute respiratory syndrome coronavirus 2, HeLa-ACE2, read-out: HeLa-ACE2 CoV-2 EC50 [μM], Table 4, aggregated data, Geomean, n = 3
[11] = HeLa-ACE2 Uninfected Tox CC50 [μM], Table 4, aggregated data, Geomean, n = 3
[12] = Severe acute respiratory syndrome coronavirus 2, HeLa-ACE2, 24 h, read-out: CoV-2 EC50 [μM] (Geomeans, n ≥ 2)
[13] = CC50 [μM] (Geomeans, n ≥ 2 except where indicated: *n = 1)
[14] = HeLa-ACE2 Uninfected Tox CC50 [μM]
[15] = Severe acute respiratory syndrome coronavirus 2, HeLa-ACE2, read-out: SARS CoV-2 EC50 (μM)

Row | Structure (SMILES) | EC50 [1] [µM] | HeLa-ACE2 SI CC50/CoV-2 EC50 ([2]; Table 4) | Calu3 SI CC50/CoV-2 EC50 ([3]; Table 4) | EC50 [4, 10] [µM] | CC50 [5] [nM] | CC50 [6, 11] [µM] | also measured
1 | CO[C@H]1[C@@H](O)C[C@H](O[C@H]2[C@@H](O)C[C@H](O[C@H]3[C@@H](O)C[C@H](O[C@H]4CC[C@@]5(C)[C@H](CC[C@@H]6[C@@H]5C[C@@H](O)[C@]5(C)[C@@H](C7=CC(=O)OC7)CC[C@]65O)C4)O[C@@H]3C)O[C@@H]2C)O[C@@H]1C [Metildigoxin] | 0.399 | 0.56 | 6.22 |  |  |  | EC50 [4, 9]: 0.284 µM; CC50 at 48 h [5]: 1240 nM; CC50 [6]: 0.159 µM
2 | CCCCCCCCCCCCCC(=O)O[C@@H]1[C@@H](C)[C@@]2(O)[C@@H](C=C(CO)C[C@]3(O)C(=O)C(C)=C[C@@H]23)[C@@H]2C(C)(C)[C@]12OC(C)=O [Phorbol 12-myristate 13-acetate] | 0.016 | 2.89 | 1384.37 | 0.07 | 22500 | 0.201 | 
3 | COc1ccc2c(c1)[C@]1(CC1c1ccc3c(/C=C/c4ccc(CN5C[C@@H](C)O[C@@H](C)C5)cc4)n[nH]c3c1)C(=O)N2 (some centres unmarked) [CFI-400945] | 3.36 |  | >5.88 |  | > 19800 |  | HeLa-ACE2 CC50/CoV-2 EC50 [2]: <1.02; HeLa-ACE2 SI CC50/CoV-2 EC50 [2]: <1.02; EC50 [7]: > 0.117 µM; EC50 [4, 12]: > 7 µM; EC50 [4, 9]: > 7 µM; CC50 [6, 13]: 7.18 µM; CC50 [6, 14]: 7.18 µM
4 | CC(=O)O[C@H]1C[C@H](O[C@H]2[C@@H](O)C[C@H](O[C@H]3[C@@H](O)C[C@H](O[C@H]4CCC5(C)[C@H](CC[C@@H]6[C@@H]5CCC5(C)[C@@H](C7=CC(=O)OC7)[C@@H](O)CC65O)C4)O[C@@H]3C)O[C@@H]2C)O[C@H](C)[C@H]1O[C@@H]1O[C@H](CO)[C@@H](O)[C@H](O)[C@H]1O (some centres unmarked) [[…]] | 0.688 | 2.175 | 4.90 | 0.803 | 3370 | 1.75 | 
5 | Sc1ncnc2nc[nH]c12 [Mercaptopurine] | 0.197 | 5.51 | 6.95 | 3.57 | 1370 | 19.6 | 
6 | CC1OC(O[C@H]2CC[C@@]3(C=O)[C@H](CC[C@@H]4[C@@H]3CC[C@]3(C)[C@@H](C5=CC(=O)OC5)CC[C@]43O)C2)C(O)C(O)C1O (some centres unmarked) [Peruvoside (analog)] | 0.251 | 1.40 | 5.61 | 0.246 | 1410 | 0.345 | 
7 | CC[C@H]1CN2CCc3cc(OC)c(OC)cc3[C@@H]2C[C@@H]1C[C@H]1NCCc2cc(O)c(OC)cc21 [Cephaeline] | 0.142 | 12.66 | 34.84 |  |  |  | EC50 [4, 9]: 0.017 µM; CC50 at 48 h [5]: 4960 nM; CC50 [6]: 0.212 µM
8 | Nc1nc(N)c2nc(CCc3ccc(C(=O)N[C@@H](CCC(=O)O)C(=O)O)cc3)cnc2n1 [10-deazaaminopterin] |  |  |  |  |  |  | interaction with remdesivir [8]: synergized; maximal efficacy ([8]; compound alone, over the range of concentrations tested): 40%; maximal efficacy ([8]; with addition of EC2 of remdesivir): ~65%; maximal efficacy ([8]; with addition of EC24 of remdesivir): > 80%
9 | CNC(=O)n1ccc2cc(Oc3ccnc(NC(=O)c4ccc(C5CCN(CCO)CC5)cc4)c3)c(OCCOC)cc21 [E-7090] | 0.753 | 8.01 | 19.88 | 2.65 | 15000 | 21.2 | 
10 | C[C@@H]1C[C@@H]([C@H](O)CC2CC(=O)NC(=O)C2)C(=O)[C@@H](C)C1 [Cycloheximide] | 0.195 | 2.32 | 12.50 |  |  |  | EC50 [4, 9]: 0.634 µM; CC50 at 48 h [5]: 2440 nM; CC50 [6]: 1.47 µM
11 | CCOC(=O)[C@@H]1O[C@H]1C(=O)N[C@@H](CC(C)C)C(=O)N1CCN(Cc2ccc(OC)c(OC)c2OC)CC1 [NCO 700] |  |  |  |  |  |  | HeLa-ACE2 CC50/CoV-2 EC50 [2]: >50.44; EC50 [4, 12]: 0.79 µM; EC50 [4, 15]: 0.79 µM; CC50 [6, 13]: > 39.8 µM; CC50 ([6]; Uninfected HeLa-ACE2 CC50 (μM)): > 39.8 µM; Synergy score with remdesivir (δ) [8]: 0.209
12 | O=c1[nH]c(=O)n([C@@H]2O[C@H](CO)[C@@H](O)[C@H]2O)cc1F [Analog of OGT-719] | 1.17 | 0.03 | 7.44 | 4.02 | 8730 | 0.109 | 
13 | Nc1ncnc2c1ccn2[C@@H]1O[C@H](CO)[C@@H](O)[C@H]1O [TUBERCIDIN] | 0.111 | 3.04 | 9.68 | 0.183 | 1070 | 0.557 | 
14 | CCCCC1CCc2cc(O)cc3c(CCN4CCN(c5cc(C)ccn5)CC4)c(C)n1c23 (centres unmarked) [KC 11404] |  |  |  |  |  |  | HeLa-ACE2 CC50/CoV-2 EC50 [2]: >8.39; EC50 [4, 12]: 2.5 µM; EC50 [4, 15]: 2.5 µM; CC50 [6, 13]: > 20.9 µM; CC50 ([6]; Uninfected HeLa-ACE2 CC50 (μM)): > 20.9 µM; Synergy score with remdesivir (δ) [8]: −2.817
15 | CCN(CC)CCCNc1ccnc2cc(Cl)ccc12 [AQ-13] |  |  |  |  |  |  | HeLa-ACE2 CC50/CoV-2 EC50 [2]: 32.34; EC50 [4, 12]: 0.8 µM; EC50 [4, 15]: 0.8 µM; CC50 [6, 13]: 25.9 µM; Synergy score with remdesivir (δ) [8]: −1.77
16 | COC1CC(OC2CCC3(C=O)[C@H]4CCC5(C)C(C6=CC(=O)OC6)CCC5(O)[C@@H]4CCC3(O)C2)OC(C)C1O (some centres unmarked) [CYMARINE] | 0.135 | 1.21 | 43.53 | 0.237 | 5870 | 0.287 | 
17 | CN1CCN(c2ccc(C(=O)NCc3cnc(C#N)nc3NCC(C)(C)C)cc2)CC1 [Dutacatib] |  |  |  |  |  |  | HeLa-ACE2 CC50/CoV-2 EC50 [2]: >13.43; EC50 [4, 12]: 2.69 µM; EC50 [4, 15]: 2.69 µM; CC50 [6, 13]: > 36.1 µM; CC50 ([6]; Uninfected HeLa-ACE2 CC50 (μM)): > 36.1 µM; Synergy score with remdesivir (δ) [8]: 2.955
18 | CC[C@H]1CN2CCc3cc(OC)c(OC)cc3[C@@H]2C[C@@H]1C[C@H]1NCCc2cc(OC)c(OC)cc21 [Emetine] | 0.444 | 5.66 | 19.97 | 0.06 | 8870 | 0.34 | 
19 | Cn1c(C#N)ccc1-c1ccc2c(c1)C(C)(C)OC(=S)N2 [tanaproget] | 2.44 | 0.91 | 7.99 | 0.141 | 19300 | 0.128 | 
20 | COC(=O)[C@@]12OC[C@]34[C@H]([C@@H](O)[C@@H]1O)[C@@]1(C)CC(=O)C(O)=C(C)[C@@H]1C[C@H]3OC(=O)[C@H](OC(=O)/C=C(\C)C(C)C)[C@@H]24 [Bruceantin] | 0.019 | 20.18 | 50.22 | 0.006 | 973 | 0.117 | 
21 | CC(N)c1ccc(C(=O)Nc2ccncc2)cc1-c1ccc(F)cc1 (centres unmarked) [AMA-0076] | 3.87 |  | >16 | > 9.59 | > 29900 | 35.8 | 
22 | C#C[C@]1(O)CC[C@H]2[C@@H]3CCc4cc(OS(=O)(=O)C(C)C)ccc4[C@H]3CC[C@@]21C [ethinyl estradiol sulfonate] | 1.23 |  | 5.59 | > 9.59 | 6860 | 20.4 | 
23 | CC(C)(O)c1ccccc1-c1ccc2[nH]c(/C=C/c3ccc(C(F)(F)F)cc3)nc2c1 [Mavatrep] | 2.66 |  | 5.50 | > 9.59 | 14600 | 22.5 | 
24 | C[C@H]1O[C@@H](O[C@H]2[C@@H](O)C[C@@H](O[C@@H]3[C@@H](O)C[C@H](O[C@H]4CC[C@@]5(C)[C@H](CC[C@@H]6[C@@H]5C[C@@H](O)[C@]5(C)[C@@H](C7=CC(=O)OC7)CC[C@]65O)C4)O[C@@H]3C)O[C@@H]2C)C[C@H](O)[C@@H]1O (stereo in doubt) [Digoxin] | 0.17 |  | >29.80 |  | > 5040 |  | HeLa-ACE2 CC50/CoV-2 EC50 [2]: 0.72; HeLa-ACE2 SI CC50/CoV-2 EC50 [2]: 0.72; EC50 [7]: 0.325 µM; EC50 [4, 12]: 0.166 µM; EC50 [4, 9]: 0.166 µM; CC50 [6, 13]: 0.12 µM; CC50 [6, 14]: 0.12 µM
25 | N=C(N)c1ccc2cc(OC(=O)c3ccc(CNC(=O)CCCC(=O)O)o3)ccc2c1 [TO-195] | 0.657 | >6 | >45 | > 9.59 | > 29900 | > 39.8 | 
26 | COc1ccc2c(c1)c(CC(=O)NO)c(C)n2C(=O)c1ccc(Cl)cc1 [oxametacin] | 3.56 |  |  |  | 17700 |  | HeLa-ACE2 SI CC50/CoV-2 EC50 [2]: 0.64; Calu3 SI CC50/CoV-2 EC50 [3]: 4.98; EC50 [4, 9]: 9.14 µM; CC50 [6, 14]: 5.87 µM
27 | C=C(C)[C@]12C[C@@H](C)[C@@]34O[C@](Cc5ccccc5)(O[C@@H]1[C@@H]3C=C(COC(=O)Cc1ccc(O)c(OC)c1)C[C@]1(O)C(=O)C(C)=C[C@@H]41)O2 [Resiniferatoxin] | 0.903 | 5.53 | 19.13 |  |  |  | EC50 [4, 9]: 1.3 µM; CC50 at 48 h [5]: 17300 nM; CC50 [6]: 7.17 µM
